Publication PMC7377361, “Pressurized DNA state inside herpes capsids—A novel antiviral target” (PLoS Pathogens, 2020)
Where no end group is shown, it is not given here.

How the values were obtained:
free dsDNA = assay: SAXS of free (bulk) DNA condensed by added compound; conditions: free dsDNA in TM-buffer, N/P ratio 1.5, 15, 23 and 37°C
From the text: To determine if our DNA condensing compounds target pressurized intracapsid DNA in HSV-1 virions, we developed a three-step SAXS assay. In the first step, we confirmed the ability of compounds DAB-Am-4, bPEI 600, and Arg^5+ to condense the dsDNA in solution. We measured DNA-DNA spacing (ds) in bulk DNA solution in TM-buffer (i.e. free DNA without the capsid), where DNA is condensed by the added compound. This bulk DNA ds-measurement allows for quick prescreening with an in-house SAXS to determine if compounds are capable of binding to dsDNA and reducing DNA-DNA spacing below the physiologic ds-value for DNA packaged in a viral capsid (ds* = 31Å for HSV-1). […] The Bragg spacing, dBr, and the actual distance between helices, ds, are related by ds = 2dBr/sqrt(3) (see details in Materials and Methods). […] Compound concentrations were scaled proportionally with DNA concentration in the sample to correspond to the N/P ratio of 1.5, where N provides the number of positively charged amine groups on the polyamine compound, and P provides the number of negatively charged phosphate groups on the DNA. An N/P ratio of ~1–1.5 was previously shown to be sufficient for DNA condensation with polycationic amines.
For bulk DNA measurements with in-house SAXS, concentrated polycation solutions were added to 1 mg/mL free DNA in small increments of concentration. […]

NPC = assay: Nuclear import assay (GST-NLS-EGFP) in isolated rat liver nuclei; format: biochemical; conditions: cytosol and ATP regeneration system, 37 °C
Method: This was verified with a fluorescently labeled nuclear localization signal (NLS), added to purified rat liver nuclei incubated with cytosolic extracts (as a source of soluble import factors) supplemented with an ATP regeneration system, see Supporting Materials for experimental description and S4A Fig. These controls were also reproduced with a digitonin-permeabilized cell assay, which accurately recapitulates capsid-nucleus binding and nuclear import in living cells; see Supporting Materials and data shown in S4B Fig. In agreement with observations in the isolated nuclei system (Fig 3B), we also confirmed via a digitonin-permeabilized cell assay that none of the three compounds interfered with capsid-NPC binding in cells. Attachment of GFP-capsids to nuclei was visualized with SR-SIM (S4C Fig). The addition of WGA prevented capsid binding, showing capsid-NPC binding specificity (S4C Fig).
Rat liver cell nuclei were incubated with GST-NLS-EGFP at 37 °C for 40 min in CBB buffer containing: (i) rat liver cell cytosol, (ii) 1 mg/mL BSA, and (iii) ATP regeneration system. The complete binding mixture was loaded onto coverslips and processed for fluorescence imaging as described above. When indicated, nuclei were preincubated with the polyvalent cationic agents at the concentrations described above for 2 h before performing import assays. […]

[1] = Cytotoxicity assay in uninfected HFF-1 cells; conditions: human
Method: In parallel, for each DNA condensing compound, we determined the cytotoxicity concentration (CC50 value) using standard in vitro cellular replication assays in human foreskin fibroblast (HFF) cells (used as a standard for herpesvirus replication in vitro assays for antiviral compound tests)[48]. Cytotoxicity assays were performed on a parallel set of six-well plates containing confluent monolayers of HFF-1 cells at the same cell amount as used for antiviral plaque reduction assays for EC50 value determination, but cells were uninfected[48].
Cytotoxicity assays were performed on a parallel set of six-well plates containing HFF-1 cells that received the same compound concentrations as used for the antiviral assays but remained uninfected. […]
Each compound was evaluated in a standard cytotoxicity assay by standard methods [100]. […] The optical density was then determined at 550 nm and CC50 values were interpolated from the experimental data.
The inhibition of either Vero cell or HFF-1 cell proliferation was used to refine estimates of cytotoxicity for the compounds and was performed according to standard procedures [101]. […] The plates were incubated for 72 h at 37°C; the cells were then dislodged with trypsin and counted on a Beckman Coulter Counter. […]

From the text for MEF cell line: We also determined cytotoxicity in the murine MEF cell line, relevant to animal studies.

| Compound | DNA-DNA interaxial spacing ds (free dsDNA) | nuclear import of GST-NLS-GFP protein (NPC) | CC50 at 7 days [1] [µM] | CC50 (MEF cell line) [µM] |
| --- | --- | --- | --- | --- |
| RRRRR [Arg^5+] | below 31 Å | not blocked | 83 | – |
| NCCCN(CCCN)CCCCN(CCCN)CCCN [DAB-Am-4] | below 31 Å | not blocked | – | 22 |
